Measured values: PubChem BioAssay (NCI)
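Each compound was tested at five concentrations against cells in 96-well plates for 48 hours. Here, GI50 denotes the concentration required for 50% inhibition of growth. TGI denotes the concentration required for complete inhibition of growth.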

Assays:
Experiment in all cases: DTP human tumour cell line panel, 48 h
K-562 leukemia = tested on: K-562 leukemia
A498 renal = tested on: A498 renal
SK-OV-3 ovarian = tested on: SK-OV-3 ovarian
OVCAR-5 ovarian = tested on: OVCAR-5 ovarian
BT-549 breast = tested on: BT-549 breast
SNB-19 CNS = tested on: SNB-19 CNS
SF-268 CNS = tested on: SF-268 CNS
SF-295 CNS = tested on: SF-295 CNS
SK-MEL-5 melanoma = tested on: SK-MEL-5 melanoma
SF-539 CNS = tested on: SF-539 CNS
SR leukemia = tested on: SR leukemia
T-47D breast = tested on: T-47D breast
COLO 205 colon = tested on: COLO 205 colon
OVCAR-3 ovarian = tested on: OVCAR-3 ovarian
NCI-H460 lung = tested on: NCI-H460 lung
MOLT-4 leukemia = tested on: MOLT-4 leukemia
NCI-H226 lung = tested on: NCI-H226 lung
A549 NSCLC = tested on: A549 NSCLC
UACC-257 melanoma = tested on: UACC-257 melanoma
MALME-3M melanoma = tested on: MALME-3M melanoma
SN12C renal = tested on: SN12C renal
NCI-H522 lung = tested on: NCI-H522 lung
HS 578T breast = tested on: HS 578T breast
DU-145 prostate = tested on: DU-145 prostate
UACC-62 melanoma = tested on: UACC-62 melanoma
M14 melanoma = tested on: M14 melanoma
KM12 colon = tested on: KM12 colon
MCF7 breast = tested on: MCF7 breast
IGROV1 ovarian = tested on: IGROV1 ovarian
UO-31 renal = tested on: UO-31 renal
HT29 colon = tested on: HT29 colon
HCC-2998 colon = tested on: HCC-2998 colon
HCT-15 colon = tested on: HCT-15 colon
U251 CNS = tested on: U251 CNS
SK-MEL-28 melanoma = tested on: SK-MEL-28 melanoma
ACHN renal = tested on: ACHN renal
OVCAR-8 ovarian = tested on: OVCAR-8 ovarian
MDA-MB-435 = tested on: MDA-MB-435
SW-620 colon = tested on: SW-620 colon
HCT-116 colon = tested on: HCT-116 colon
CCRF-CEM leukemia = tested on: CCRF-CEM leukemia
EKVX NSCLC = tested on: EKVX NSCLC
PC-3 prostate = tested on: PC-3 prostate
MDA-MB-231 breast = tested on: MDA-MB-231 breast
HL-60(TB) leukemia = tested on: HL-60(TB) leukemia
786-0 renal = tested on: 786-0 renal
SNB-75 CNS = tested on: SNB-75 CNS
HOP-92 NSCLC = tested on: HOP-92 NSCLC
OVCAR-4 ovarian = tested on: OVCAR-4 ovarian
RPMI-8226 leukemia = tested on: RPMI-8226 leukemia
NCI/ADR-RES ovarian = tested on: NCI/ADR-RES ovarian
CAKI-1 renal = tested on: CAKI-1 renal
LOX IMVI melanoma = tested on: LOX IMVI melanoma
HOP-62 NSCLC = tested on: HOP-62 NSCLC
SK-MEL-2 melanoma = tested on: SK-MEL-2 melanoma
RXF 393 renal = tested on: RXF 393 renal
TK-10 renal = tested on: TK-10 renal

CN1CCN(Cc2ccc(NC(=O)c3cncc(C#Cc4cnc(N)nc4)c3)cc2C(F)(F)F)CC1
GI50 (K-562 leukemia): 5 nM
TGI (K-562 leukemia): 50000 nM
GI50 (A498 renal): 228 nM
TGI (A498 renal): 1140 nM
GI50 (SK-OV-3 ovarian): 174 nM
TGI (SK-OV-3 ovarian): 1120 nM
GI50 (OVCAR-5 ovarian): 994 nM
TGI (OVCAR-5 ovarian): 9760 nM
GI50 (BT-549 breast): 1240 nM
TGI (BT-549 breast): 5470 nM
GI50 (SNB-19 CNS): 4380 nM
TGI (SNB-19 CNS): 27600 nM
GI50 (SF-268 CNS): 930 nM
TGI (SF-268 CNS): 8720 nM
GI50 (SF-295 CNS): 1430 nM
TGI (SF-295 CNS): 9220 nM
GI50 (SK-MEL-5 melanoma): 1180 nM
TGI (SK-MEL-5 melanoma): 5700 nM
GI50 (SF-539 CNS): 263 nM
TGI (SF-539 CNS): 3780 nM
GI50 (SR leukemia): 425 nM
TGI (SR leukemia): 8480 nM
GI50 (T-47D breast): 916 nM
TGI (T-47D breast): 50000 nM
GI50 (COLO 205 colon): 398 nM
TGI (COLO 205 colon): 5610 nM
GI50 (OVCAR-3 ovarian): 957 nM
TGI (OVCAR-3 ovarian): 10100 nM
GI50 (NCI-H460 lung): 306 nM
TGI (NCI-H460 lung): 6230 nM
GI50 (MOLT-4 leukemia): 449 nM
TGI (MOLT-4 leukemia): 11600 nM
GI50 (NCI-H226 lung): 203 nM
TGI (NCI-H226 lung): 2220 nM
GI50 (A549 NSCLC): 1010 nM
TGI (A549 NSCLC): 8740 nM
GI50 (UACC-257 melanoma): 773 nM
TGI (UACC-257 melanoma): 6120 nM
GI50 (MALME-3M melanoma): 150 nM
TGI (MALME-3M melanoma): 653 nM
GI50 (SN12C renal): 332 nM
TGI (SN12C renal): 5740 nM
GI50 (NCI-H522 lung): 376 nM
TGI (NCI-H522 lung): 6930 nM
GI50 (HS 578T breast): 331 nM
TGI (HS 578T breast): 2290 nM
GI50 (DU-145 prostate): 385 nM
TGI (DU-145 prostate): 11400 nM
GI50 (UACC-62 melanoma): 298 nM
TGI (UACC-62 melanoma): 3390 nM
GI50 (M14 melanoma): 178 nM
TGI (M14 melanoma): 1280 nM
GI50 (KM12 colon): 52.1 nM
TGI (KM12 colon): 7270 nM
GI50 (MCF7 breast): 1470 nM
TGI (MCF7 breast): 11600 nM
GI50 (IGROV1 ovarian): 189 nM
TGI (IGROV1 ovarian): 5210 nM
GI50 (UO-31 renal): 396 nM
TGI (UO-31 renal): 2880 nM
GI50 (HT29 colon): 351 nM
TGI (HT29 colon): 6010 nM
GI50 (HCC-2998 colon): 1350 nM
TGI (HCC-2998 colon): 9530 nM
GI50 (HCT-15 colon): 556 nM
TGI (HCT-15 colon): 12900 nM
GI50 (U251 CNS): 521 nM
TGI (U251 CNS): 9280 nM
GI50 (SK-MEL-28 melanoma): 560 nM
TGI (SK-MEL-28 melanoma): 3540 nM
GI50 (ACHN renal): 244 nM
TGI (ACHN renal): 5230 nM
GI50 (OVCAR-8 ovarian): 1070 nM
TGI (OVCAR-8 ovarian): 9570 nM
GI50 (MDA-MB-435): 247 nM
TGI (MDA-MB-435): 5560 nM
GI50 (SW-620 colon): 490 nM
TGI (SW-620 colon): 6410 nM
GI50 (HCT-116 colon): 231 nM
TGI (HCT-116 colon): 5160 nM
GI50 (CCRF-CEM leukemia): 1160 nM
TGI (CCRF-CEM leukemia): 16000 nM
GI50 (EKVX NSCLC): 1200 nM
TGI (EKVX NSCLC): 14600 nM
GI50 (PC-3 prostate): 821 nM
TGI (PC-3 prostate): 17200 nM
GI50 (MDA-MB-231 breast): 258 nM
TGI (MDA-MB-231 breast): 3460 nM
GI50 (HL-60(TB) leukemia): 283 nM
TGI (HL-60(TB) leukemia): 3590 nM
GI50 (786-0 renal): 849 nM
TGI (786-0 renal): 5790 nM
GI50 (SNB-75 CNS): 123 nM
TGI (SNB-75 CNS): 1000 nM
GI50 (HOP-92 NSCLC): 157 nM
TGI (HOP-92 NSCLC): 1230 nM
GI50 (OVCAR-4 ovarian): 553 nM
TGI (OVCAR-4 ovarian): 9750 nM
GI50 (RPMI-8226 leukemia): 660 nM
TGI (RPMI-8226 leukemia): 6430 nM
GI50 (NCI/ADR-RES ovarian): 3560 nM
TGI (NCI/ADR-RES ovarian): 19900 nM
GI50 (CAKI-1 renal): 150 nM
TGI (CAKI-1 renal): 763 nM
GI50 (LOX IMVI melanoma): 189 nM
TGI (LOX IMVI melanoma): 846 nM
GI50 (HOP-62 NSCLC): 952 nM
TGI (HOP-62 NSCLC): 6430 nM
GI50 (SK-MEL-2 melanoma): 110 nM
TGI (SK-MEL-2 melanoma): 339 nM
GI50 (RXF 393 renal): 346 nM
TGI (RXF 393 renal): 4180 nM
GI50 (TK-10 renal): 810 nM
TGI (TK-10 renal): 7170 nM
